Here are results for 16 compounds from patent publication US20090156582A1, “Pyrazole Compound” (priority 2005, published 2009).

Where only a bound is given, the exact number is not on record here.

For this experiment, the target named is T1, recombinant GSK3β enzyme (human GSK3β) (Homo sapiens, UniProt P49841).
T1 construct: FLAG (N); made in house; host or cells: Sf-21 insect cells, recombinant baculovirus (pFASTBAC1 / BAC-TO-BAC)
T1 sequence (P49841 whole entry): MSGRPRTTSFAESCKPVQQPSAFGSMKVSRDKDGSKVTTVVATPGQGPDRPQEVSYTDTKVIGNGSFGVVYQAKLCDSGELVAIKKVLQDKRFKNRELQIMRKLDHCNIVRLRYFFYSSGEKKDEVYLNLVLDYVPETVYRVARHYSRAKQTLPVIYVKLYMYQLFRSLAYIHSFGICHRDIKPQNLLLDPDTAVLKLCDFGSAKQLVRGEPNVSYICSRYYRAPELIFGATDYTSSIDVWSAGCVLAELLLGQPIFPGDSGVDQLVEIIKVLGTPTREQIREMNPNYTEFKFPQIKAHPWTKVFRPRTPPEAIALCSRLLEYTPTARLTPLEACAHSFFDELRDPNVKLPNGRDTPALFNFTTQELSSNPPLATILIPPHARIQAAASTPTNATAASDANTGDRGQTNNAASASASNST
The experiment in a line: Measurement of GSK3β inhibitory activity. Format: biochemical. As to conditions: glycogen synthase peptide substrate, Kinase Glo luminescence, read-out: IC50 (concentration of test compound needed for 50% inhibition of luminescent intensity), GSK3β inhibitory activity. The source says:
Human GSK3β gene was cloned by a PCR method using a primer set:
prepared using human brain cDNA (Clontech; trade name: QUICK-Clone cDNA) as a template and in reference to the base sequence of GSK3β gene registered in GenBank under Accession Number NM_002093.
PCR was done according to the protocol attached to KOD plus DNA polymerase (Toyo Boseki Kabushiki Kaisha). The obtained PCR product was electrophoresed on agarose gel (1%), and 1.2 kb of DNA fragment including GSK3β gene was collected from the gel and then digested with restriction enzymes EcoR I and Sal I. The restriction enzyme-treated DNA was electrophoresed on agarose gel (1%). The obtained DNA fragment was collected, and ligated to the plasmid pFASTBAC1 (Invitrogen), which had been digested with restriction enzyme EcoR I and Sal I, to produce expression plasmid pFB-GSK3B. The base sequence of insertion fragment was confirmed to find that it corresponded to the objective sequence. In addition, virus stock BAC-GSK3B of recombinant Baculovirus was prepared using BAC-TO-BAC Baculovirus Expression System (Invitrogen).
Sf-21 cells (Invitrogen) were seeded on Sf-900 II SFM medium (Invitrogen)(150 ml) containing 10% fetal calf serum at 1×10^6 cells/ml, and cultured at 27° C. for 24 hr. The virus stock […] obtained above of recombinant Baculovirus was added by 150 μl to the obtained culture medium, and the cells were cultured for another 60 hr. The culture medium was centrifuged (3000 rpm, 10 min) to separate the cells, and the cells were washed once with PBS. The cells were suspended in 10 ml of cell lysis buffer (25 mM HEPES (pH 7.5), 1% Triton X, 130 mM sodium chloride, 1 mM EDTA, 1 mM Dithiothreitol, 25 mM β-glycerophosphate, Protease inhibitor Complete (Boehringer), 1 mM Sodium orthovanadate), treated 4 times using a homogenizer (POLYTRON) at 20000 rpm for 30 sec to disrupt the cells. The disrupted solution of cells was centrifuged (40000 rpm, 45 min.), and GSK3β was purified from the obtained supernatant using Anti-FLAG M2 Affinity Gel (Sigma Ltd.).
10 μl of ATP solution (2.5 μM ATP) was added to the obtained mixture, and the mixture was reacted at room temperature for 30 min. Kinase Glo Reagent (Promega) (50 μl) was added to the reaction solution to stop the reaction. After reaction at room temperature for 10 min, the luminescent intensity was measured using ARVO multilabel counter (PerkinElmer Life Sciences). The concentrations of the test compounds needed for 50% inhibition of luminescent intensity (IC50 value) were calculated by PRISM 3.0 (GraphPad Software).
Background: Kinase-Glo reads ATP consumption through a luciferase reaction.
For the compound `O=C(NC1CCCC1)c1n[nH]cc1NC(=O)c1c(F)cccc1F` [Example 366, N-cyclopentyl-4-((2,6-difluorobenzoyl)amino)-1H-pyrazole-3-carboxamide], the IC50 is less than 100 nM.

`O=C(NC1CCCC1)c1n[nH]cc1NC(=O)C1CCCC1` [Example 367, N-cyclopentyl-4-(cyclopentanecarbonylamino)-1H-pyrazole-3-carboxamide]: the IC50 is less than 100 nM.

As for `CCC(CC)C(=O)Nc1c[nH]nc1C(=O)NC1CCCC1` [Example 368, N-cyclopentyl-4-((2-ethylbutanoyl)amino)-1H-pyrazole-3-carboxamide], the IC50 was less than 100 nM.

In the case of `CC(=O)Nc1cccc(C(=O)Nc2c[nH]nc2C(=O)NCCOc2ccccc2)c1` [Example 369, 4-((3-(acetylamino)benzoyl)amino)-N-(2-phenoxyethyl)-1H-pyrazole-3-carboxamide], the IC50 was less than 100 nM.

Take `COCCNC(=O)c1n[nH]cc1NC(=O)c1cccc(NC(C)=O)c1` [Example 370, 4-((3-(acetylamino)benzoyl)amino)-N-(2-methoxyethyl)-1H-pyrazole-3-carboxamide]: the IC50 is less than 100 nM.

As for `CC(=O)Nc1cccc(C(=O)Nc2c[nH]nc2C(=O)NCCOC(C)C)c1` [Example 371, 4-((3-(acetylamino)benzoyl)amino)-N-(2-isopropoxyethyl)-1H-pyrazole-3-carboxamide], the IC50 is less than 100 nM.

For `CC(=O)Nc1cccc(C(=O)Nc2c[nH]nc2C(=O)NCCC#N)c1` [Example 372, 4-((3-(acetylamino)benzoyl)amino)-N-(2-cyanoethyl)-1H-pyrazole-3-carboxamide], the IC50 was less than 100 nM.

Turning to `CC(=O)Nc1cccc(C(=O)Nc2c[nH]nc2C(=O)NCCN(C)C)c1` [Example 373, 4-((3-(acetylamino)benzoyl)amino)-N-(2-(dimethylamino)ethyl)-1H-pyrazole-3-carboxamide], the IC50 was less than 100 nM.

For `CC(=O)Nc1cccc(C(=O)Nc2c[nH]nc2C(=O)NCC(=O)c2ccccc2)c1` [Example 374, 4-((3-(acetylamino)benzoyl)amino)-N-(2-oxo-2-phenylethyl)-1H-pyrazole-3-carboxamide], the IC50 is less than 100 nM.

As to `CC(=O)Nc1cccc(C(=O)Nc2c[nH]nc2C(=O)NCC(F)(F)F)c1` [Example 375, 4-((3-(acetylamino)benzoyl)amino)-N-(2,2,2-trifluoroethyl)-1H-pyrazole-3-carboxamide], the IC50 was less than 100 nM.

Consider `CC(=O)Nc1cccc(C(=O)Nc2c[nH]nc2C(=O)NCCSc2ccccc2)c1` [Example 376, 4-((3-(acetylamino)benzoyl)amino)-N-(2-(phenylthio)ethyl)-1H-pyrazole-3-carboxamide], for which the IC50 is less than 100 nM.

Take `Cc1[nH]nc(C(=O)NC2CCCC2)c1NC(=O)c1ccccc1` [Example 378, 4-(benzoylylamino)-N-cyclopentyl-5-methyl-1H-pyrazole-3-carboxamide]: the IC50 was found to be 1000 nM.

Regarding `CC(=O)Nc1cccc(C(=O)Nc2c[nH]nc2C(=O)NCC#N)c1` [Example 380, 4-((3-(acetylamino)benzoyl)amino)-N-(cyanomethyl)-1H-pyrazole-3-carboxamide], the IC50 is less than 100 nM.

On to `CC(=O)Nc1cccc(C(=O)Nc2c[nH]nc2C(=O)NCCOC(C)(C)C)c1` [Example 381, 4-((3-(acetylamino)benzoyl)amino)-N-(2-tert-butoxyethyl)-1H-pyrazole-3-carboxamide], for which the IC50 came out at 140 nM.

As for `CC(=O)Nc1cccc(C(=O)Nc2c[nH]nc2C(=O)NCCS(C)(=O)=O)c1` [Example 382, 4-((3-(acetylamino)benzoyl)amino)-N-(2-(methylsulfonyl)ethyl)-1H-pyrazole-3-carboxamide], the IC50 was less than 100 nM.

For the compound `CC(=O)Nc1cccc(C(=O)Nc2c[nH]nc2C(=O)NCCS(=O)(=O)c2ccc(Cl)cc2)c1` [Example 383, 4-((3-(acetylamino)benzoyl)amino)-N-(2-((4-chlorophenyl)sulfonyl)ethyl)-1H-pyrazole-3-carboxamide], the IC50 is less than 100 nM.
